Activity calls are given as the source filed them. No cut-off for these calls is given here. Residues, ends and D or L forms follow the SMILES beside them. *: point of attachment. X1 = COc1nc(CCCN*)cnc1NS(=O)(=O)c1ccc(NC(=O)CCc2cccs2)cc1; Biotin = O=C1N[C@H]2[C@H](CS[C@H]2CCCCC(=O)*)N1; Ahx = NCCCCCC(=O)O

For 15 compounds, Activity and viability results are on record in ChEMBL document CHEMBL3217478, “Necrosulfonamide inhibits necroptosis by selectively targeting the mixed lineage kinase domain-like protein” (2014).

One assay addresses T1, Mixed lineage kinase domain-like protein (Homo sapiens) (UniProt Q8NB16).
T1 sequence (whole entry): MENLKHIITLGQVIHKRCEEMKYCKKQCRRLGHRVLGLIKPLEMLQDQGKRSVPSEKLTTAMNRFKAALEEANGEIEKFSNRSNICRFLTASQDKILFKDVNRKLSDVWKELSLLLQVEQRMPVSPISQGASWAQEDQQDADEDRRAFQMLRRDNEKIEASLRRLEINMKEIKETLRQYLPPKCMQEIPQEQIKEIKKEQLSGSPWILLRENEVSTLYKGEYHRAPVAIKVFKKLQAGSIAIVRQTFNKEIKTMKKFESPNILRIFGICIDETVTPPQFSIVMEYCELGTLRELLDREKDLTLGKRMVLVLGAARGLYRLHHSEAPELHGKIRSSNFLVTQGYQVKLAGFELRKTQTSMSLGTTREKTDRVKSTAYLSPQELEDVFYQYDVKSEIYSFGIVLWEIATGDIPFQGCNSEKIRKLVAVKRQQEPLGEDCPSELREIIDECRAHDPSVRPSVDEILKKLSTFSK
The assay is described as follows: Competitive binding affinity to Myc-tagged MLKL (unknown origin) transfected in human HeLa cells at 20 nM by Western blot analysis in presence of biotin-labeled positive probe. The format is cell-based.
Conditions: not given
For orientation: A western blot detects proteins with antibodies after separation by electrophoresis.
As to `COc1nccnc1NS(=O)(=O)c1ccc(NC(=O)/C=C/c2ccc(Br)s2)cc1`, the outcome was inactive.

Consider `COc1nccnc1NS(=O)(=O)c1ccc(NC(=O)/C=C/c2ccc([N+](=O)[O-])s2)cc1`, for which the outcome was Active.

Regarding `C#CCOc1nccnc1NS(=O)(=O)c1ccc(NC(=O)/C=C/c2sccc2[N+](=O)[O-])cc1`, the outcome was inactive.

For a further assay, the system named is HT-29. The assay can be described thus: Cytoprotective activity against TNF-alpha, smac mimetic, z-VAD-induced necrosis in human HT-29 cells assessed as cell survival by measuring cellular ATP level at 4 uM after 24 hrs by Cell Titer-Glo assay relative to control. In kind it is functional.
Conditions: not given
Background: In ATP-based viability assays light output follows the ATP content of the culture.
On to `COc1nc(CCCNC(=O)CC[C@H](NC(=O)[C@@H]2CCCN2C(=O)[C@@H]2CCCN2C(=O)[C@@H]2CCCN2C(=O)[C@@H]2CCCN2C(=O)C2CCCN2C(=O)[C@@H]2CCCN2C(=O)[C@@H]2CCCN2C(=O)[C@@H]2CCCN2C(=O)[C@@H]2CCCN2C(=O)CCCCCNC(=O)CCCC[C@@H]2SC[C@@H]3NC(=O)N[C@@H]32)C(N)=O)cnc1NS(=O)(=O)c1ccc(NC(=O)/C=C/c2ccc([N+](=O)[O-])s2)cc1` (single isomer, unassigned), for which the result was Active.

Consider `COc1nc(CCCNC(=O)CC[C@H](NC(=O)[C@@H]2CCCN2C(=O)[C@@H]2CCCN2C(=O)[C@@H]2CCCN2C(=O)[C@@H]2CCCN2C(=O)[C@@H]2CCCN2C(=O)[C@@H]2CCCN2C(=O)[C@@H]2CCCN2C(=O)[C@@H]2CCCN2C(=O)[C@@H]2CCCN2C(=O)CCCCCNC(=O)CCCC[C@@H]2SC[C@@H]3NC(=O)N[C@@H]32)C(N)=O)cnc1NS(=O)(=O)c1ccc(NC(=O)CCc2cccs2)cc1` ({Biotin-Ahx}-PPPPPPPPPE(X1)-NH2), for which the result was inactive.

Still in this assay, the particulars now being: HT-29, 24 h, read-out: Survival.
Take `COc1nccnc1NS(=O)(=O)c1ccc(NC(=O)/C=C/c2ccc(Br)s2)cc1`: the viability at 4 µM turned out to be 31.8%.

For `COc1nccnc1NS(=O)(=O)c1ccc(NC(=O)CCc2ccc([N+](=O)[O-])s2)cc1`, the viability at 4 µM came out at 29.9%.

For the compound `O=C(/C=C/c1ccc([N+](=O)[O-])s1)Nc1ccc(S(=O)(=O)Nc2nccnc2OCc2ccccc2)cc1`, the viability at 4 µM was found to be 92.2%.

Consider `COc1nccnc1NS(=O)(=O)c1ccc(NC(=O)/C=C/c2ccc([N+](=O)[O-])cc2)cc1`, for which the viability at 4 µM was 32.2%.

Regarding `Cc1cc(C)nc(NS(=O)(=O)c2ccc(NC(=O)/C=C/c3ccc([N+](=O)[O-])s3)cc2)n1`, the viability at 4 µM came out at 79.2%.

Regarding `O=C(/C=C/c1ccc([N+](=O)[O-])s1)Nc1ccc(S(=O)(=O)Nc2nccnc2O)cc1`, the viability at 4 µM was determined as 90.4%.

For the compound `C#CCOc1nccnc1NS(=O)(=O)c1ccc(NC(=O)/C=C/c2ccc([N+](=O)[O-])s2)cc1`, the viability at 4 µM turned out to be 90.8%.

As to `COc1nccnc1NS(=O)(=O)c1ccc(NC(=O)/C=C/c2cccs2)cc1`, the viability at 4 µM came out at 29.5%.

For the compound `COc1nc(Br)cnc1NS(=O)(=O)c1ccc(NC(=O)/C=C/c2ccc([N+](=O)[O-])s2)cc1`, the viability at 4 µM came out at 90.8%.

In the case of `COc1nccnc1NS(=O)(=O)c1ccc(NC(=O)/C=C/c2cccc([N+](=O)[O-])c2)cc1`, the viability at 4 µM is 32%.

Consider `COc1nccnc1NS(=O)(=O)c1ccc(NC(=O)/C=C/c2ccc([N+](=O)[O-])s2)cc1`, for which the viability at 4 µM stood at 80.3%.

For `C#CCOc1nccnc1NS(=O)(=O)c1ccc(NC(=O)/C=C/c2sccc2[N+](=O)[O-])cc1`, the viability at 4 µM turned out to be 19.8%.

`COc1nccnc1NS(=O)(=O)c1ccc(NC(=O)CCc2cccs2)cc1`: the viability at 4 µM stood at 30.4%.
